Reference: ChEMBL document CHEMBL5442741, “ASAP - In vitro kinase profile” (2024)
Where “and” joins values, the source holds several entries; their conditions need not be identical. Equal values may be shown once.

What was measured:
[1] = biological target: 5'-AMP-activated protein kinase catalytic subunit alpha-1 (Homo sapiens) (UniProt Q13131); test: Enzymatic radiometric [Km ATP] KinaseProfiler LeadHunter assay, kinase: AMPK-alpha1, catalogue number: 14-840KP The assay has been performed by Eurofins Discovery.; conditions: ATP concentration 45.0 uM, Test compound concentration 10.0 uM
[2] = biological target: Cyclin-dependent kinase 1/cyclin B (Homo sapiens) (UniProt P06493+P14635+Q8WWL7+O95067); test: Enzymatic radiometric [Km ATP] KinaseProfiler LeadHunter assay, kinase: CDK1/cyclinB, catalogue number: 14-450KP The assay has been performed by Eurofins Discovery.; type: protein-complex assay; conditions: ATP concentration 45.0 uM, Test compound concentration 10.0 uM
[3] = biological target: Cyclin-dependent kinase 2/cyclin A (Homo sapiens) (UniProt P24941+P20248+P78396); test: Enzymatic radiometric [Km ATP] KinaseProfiler LeadHunter assay, kinase: CDK2/cyclinA, catalogue number: 14-448KP The assay has been performed by Eurofins Discovery.; type: protein-complex assay; conditions: ATP concentration 45.0 uM, Test compound concentration 10.0 uM
[4] = biological target: T1, Eukaryotic elongation factor 2 kinase (Homo sapiens) (UniProt O00418); test: Enzymatic radiometric [Km ATP] KinaseProfiler LeadHunter assay, kinase: eEF-2K, catalogue number: 14-654KP The assay has been performed by Eurofins Discovery.; conditions: ATP concentration 15.0 uM, Test compound concentration 10.0 uM
T1 sequence (whole entry): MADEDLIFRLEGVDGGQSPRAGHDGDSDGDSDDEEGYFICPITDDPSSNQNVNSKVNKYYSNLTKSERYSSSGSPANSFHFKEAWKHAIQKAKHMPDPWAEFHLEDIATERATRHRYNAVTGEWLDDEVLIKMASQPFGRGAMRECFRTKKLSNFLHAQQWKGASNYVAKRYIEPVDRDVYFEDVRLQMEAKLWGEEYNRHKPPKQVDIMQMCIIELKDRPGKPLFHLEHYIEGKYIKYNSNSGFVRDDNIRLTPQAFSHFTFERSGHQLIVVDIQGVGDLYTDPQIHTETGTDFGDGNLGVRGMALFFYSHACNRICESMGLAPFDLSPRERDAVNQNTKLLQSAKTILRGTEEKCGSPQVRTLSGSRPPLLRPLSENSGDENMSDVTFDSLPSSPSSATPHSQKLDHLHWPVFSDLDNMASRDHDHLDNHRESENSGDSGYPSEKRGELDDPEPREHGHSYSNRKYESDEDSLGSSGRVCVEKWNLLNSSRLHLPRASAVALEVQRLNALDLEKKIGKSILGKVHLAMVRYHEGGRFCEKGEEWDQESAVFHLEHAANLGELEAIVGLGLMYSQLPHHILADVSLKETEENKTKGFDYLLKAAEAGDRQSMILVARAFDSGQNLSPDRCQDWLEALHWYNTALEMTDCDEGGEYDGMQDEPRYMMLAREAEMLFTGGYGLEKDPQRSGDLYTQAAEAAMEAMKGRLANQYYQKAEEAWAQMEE

[5] = biological target: Epidermal growth factor receptor (Homo sapiens) (UniProt P00533); test: Enzymatic radiometric [Km ATP] KinaseProfiler LeadHunter assay, kinase: EGFR, catalogue number: 14-531KP The assay has been performed by Eurofins Discovery.; conditions: ATP concentration 10.0 uM, Test compound concentration 10.0 uM
Chain of Epidermal growth factor receptor (Homo sapiens) (P00533 whole entry): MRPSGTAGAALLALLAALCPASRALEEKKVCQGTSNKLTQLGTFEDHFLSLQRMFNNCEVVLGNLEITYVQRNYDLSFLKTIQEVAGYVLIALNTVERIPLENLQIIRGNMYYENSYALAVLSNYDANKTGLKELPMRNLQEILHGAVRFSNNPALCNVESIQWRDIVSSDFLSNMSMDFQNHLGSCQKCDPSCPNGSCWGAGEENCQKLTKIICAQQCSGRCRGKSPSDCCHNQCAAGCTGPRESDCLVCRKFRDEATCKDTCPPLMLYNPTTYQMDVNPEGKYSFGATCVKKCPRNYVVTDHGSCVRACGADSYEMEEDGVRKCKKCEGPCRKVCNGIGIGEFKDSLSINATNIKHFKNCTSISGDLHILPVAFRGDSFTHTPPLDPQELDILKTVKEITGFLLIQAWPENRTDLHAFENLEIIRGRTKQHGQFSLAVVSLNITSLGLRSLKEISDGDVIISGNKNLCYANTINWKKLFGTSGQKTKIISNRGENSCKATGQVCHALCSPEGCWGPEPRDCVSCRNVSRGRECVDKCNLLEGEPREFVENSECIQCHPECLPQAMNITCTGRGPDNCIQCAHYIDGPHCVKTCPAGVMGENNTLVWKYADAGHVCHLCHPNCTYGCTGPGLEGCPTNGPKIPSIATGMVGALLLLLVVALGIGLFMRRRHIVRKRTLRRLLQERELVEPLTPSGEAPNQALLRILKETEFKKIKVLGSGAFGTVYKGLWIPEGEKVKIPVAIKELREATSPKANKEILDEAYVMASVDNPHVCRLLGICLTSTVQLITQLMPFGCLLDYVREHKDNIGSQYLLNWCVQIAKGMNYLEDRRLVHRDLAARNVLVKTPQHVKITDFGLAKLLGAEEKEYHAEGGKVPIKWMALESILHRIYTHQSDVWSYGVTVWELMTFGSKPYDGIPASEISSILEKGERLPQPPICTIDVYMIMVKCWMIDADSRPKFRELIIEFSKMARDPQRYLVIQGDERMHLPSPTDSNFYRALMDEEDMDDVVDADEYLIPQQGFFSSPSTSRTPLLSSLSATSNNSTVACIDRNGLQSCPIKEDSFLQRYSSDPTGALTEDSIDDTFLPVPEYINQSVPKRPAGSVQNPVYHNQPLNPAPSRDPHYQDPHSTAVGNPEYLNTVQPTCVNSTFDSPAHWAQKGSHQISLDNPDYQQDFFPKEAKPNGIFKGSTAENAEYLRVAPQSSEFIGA

[6] = biological target: Ephrin type-A receptor 5 (Homo sapiens) (UniProt P54756); test: Enzymatic radiometric [Km ATP] KinaseProfiler LeadHunter assay, kinase: EphA5, catalogue number: 14-639KP The assay has been performed by Eurofins Discovery.; conditions: ATP concentration 10.0 uM, Test compound concentration 10.0 uM
Chain of Ephrin type-A receptor 5 (Homo sapiens) (P54756 whole entry): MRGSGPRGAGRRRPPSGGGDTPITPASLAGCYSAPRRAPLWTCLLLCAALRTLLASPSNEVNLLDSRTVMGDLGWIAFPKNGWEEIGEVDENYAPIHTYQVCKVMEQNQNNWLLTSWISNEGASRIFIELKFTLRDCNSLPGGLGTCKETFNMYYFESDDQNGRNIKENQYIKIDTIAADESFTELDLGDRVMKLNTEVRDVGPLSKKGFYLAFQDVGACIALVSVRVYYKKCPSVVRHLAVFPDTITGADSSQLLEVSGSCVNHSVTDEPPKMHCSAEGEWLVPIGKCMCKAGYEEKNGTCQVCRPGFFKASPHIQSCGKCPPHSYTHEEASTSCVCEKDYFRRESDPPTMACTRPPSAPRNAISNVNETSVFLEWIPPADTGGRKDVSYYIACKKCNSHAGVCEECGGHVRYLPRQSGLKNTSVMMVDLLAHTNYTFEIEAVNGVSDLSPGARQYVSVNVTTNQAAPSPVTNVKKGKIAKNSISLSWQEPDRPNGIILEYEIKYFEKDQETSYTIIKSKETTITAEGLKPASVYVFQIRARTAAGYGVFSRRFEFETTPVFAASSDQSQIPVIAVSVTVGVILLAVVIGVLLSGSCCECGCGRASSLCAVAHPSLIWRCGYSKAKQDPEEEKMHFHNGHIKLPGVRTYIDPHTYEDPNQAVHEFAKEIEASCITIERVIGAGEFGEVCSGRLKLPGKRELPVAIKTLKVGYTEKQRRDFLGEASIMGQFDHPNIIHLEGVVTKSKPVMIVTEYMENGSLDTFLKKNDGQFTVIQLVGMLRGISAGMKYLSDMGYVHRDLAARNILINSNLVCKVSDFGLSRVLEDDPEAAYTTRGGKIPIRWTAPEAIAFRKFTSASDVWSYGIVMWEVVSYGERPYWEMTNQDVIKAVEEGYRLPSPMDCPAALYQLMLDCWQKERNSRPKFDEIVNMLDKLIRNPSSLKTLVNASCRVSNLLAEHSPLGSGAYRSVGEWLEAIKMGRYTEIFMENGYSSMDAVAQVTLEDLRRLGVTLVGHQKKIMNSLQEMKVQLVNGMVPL

[7] = biological target: Insulin-like growth factor 1 receptor (Homo sapiens) (UniProt P08069); test: Enzymatic radiometric [Km ATP] KinaseProfiler LeadHunter assay, kinase: IGF-1R, catalogue number: 14-465KP The assay has been performed by Eurofins Discovery.; conditions: ATP concentration 200.0 uM, Test compound concentration 10.0 uM
[8] = biological target: Tyrosine-protein kinase JAK2 (Homo sapiens) (UniProt O60674); test: Enzymatic radiometric [Km ATP] KinaseProfiler LeadHunter assay, kinase: JAK2, catalogue number: 14-640KP The assay has been performed by Eurofins Discovery.; conditions: ATP concentration 45.0 uM, Test compound concentration 10.0 uM
[9] = biological target: Vascular endothelial growth factor receptor 2 (Homo sapiens) (UniProt P35968); test: Enzymatic radiometric [Km ATP] KinaseProfiler LeadHunter assay, kinase: KDR, catalogue number: 14-630KP The assay has been performed by Eurofins Discovery.; conditions: ATP concentration 90.0 uM, Test compound concentration 10.0 uM
[10] = biological target: MAP kinase-activated protein kinase 2 (Homo sapiens) (UniProt P49137); test: Enzymatic radiometric [Km ATP] KinaseProfiler LeadHunter assay, kinase: MAPKAP-K2, catalogue number: 14-337KP The assay has been performed by Eurofins Discovery.; conditions: ATP concentration 90.0 uM, Test compound concentration 10.0 uM
Chain of MAP kinase-activated protein kinase 2 (Homo sapiens) (P49137 whole entry, looked up): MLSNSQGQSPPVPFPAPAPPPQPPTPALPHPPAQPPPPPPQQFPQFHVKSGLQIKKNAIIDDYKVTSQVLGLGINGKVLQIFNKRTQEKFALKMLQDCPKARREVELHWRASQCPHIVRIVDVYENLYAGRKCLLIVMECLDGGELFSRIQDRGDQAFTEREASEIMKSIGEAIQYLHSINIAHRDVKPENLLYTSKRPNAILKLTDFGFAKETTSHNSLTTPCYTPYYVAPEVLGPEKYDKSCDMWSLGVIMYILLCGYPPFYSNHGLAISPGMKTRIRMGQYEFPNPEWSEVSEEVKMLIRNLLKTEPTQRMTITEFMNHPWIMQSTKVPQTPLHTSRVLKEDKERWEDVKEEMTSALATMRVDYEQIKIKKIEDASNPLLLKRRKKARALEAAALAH

[11] = biological target: MAP kinase-interacting serine/threonine-protein kinase 2 (Homo sapiens) (UniProt Q9HBH9); test: Enzymatic radiometric [Km ATP] KinaseProfiler LeadHunter assay, kinase: Mnk2, catalogue number: 14-664KP The assay has been performed by Eurofins Discovery.; conditions: ATP concentration 120.0 uM, Test compound concentration 10.0 uM
Chain of MAP kinase-interacting serine/threonine-protein kinase 2 (Homo sapiens) (Q9HBH9 whole entry, looked up): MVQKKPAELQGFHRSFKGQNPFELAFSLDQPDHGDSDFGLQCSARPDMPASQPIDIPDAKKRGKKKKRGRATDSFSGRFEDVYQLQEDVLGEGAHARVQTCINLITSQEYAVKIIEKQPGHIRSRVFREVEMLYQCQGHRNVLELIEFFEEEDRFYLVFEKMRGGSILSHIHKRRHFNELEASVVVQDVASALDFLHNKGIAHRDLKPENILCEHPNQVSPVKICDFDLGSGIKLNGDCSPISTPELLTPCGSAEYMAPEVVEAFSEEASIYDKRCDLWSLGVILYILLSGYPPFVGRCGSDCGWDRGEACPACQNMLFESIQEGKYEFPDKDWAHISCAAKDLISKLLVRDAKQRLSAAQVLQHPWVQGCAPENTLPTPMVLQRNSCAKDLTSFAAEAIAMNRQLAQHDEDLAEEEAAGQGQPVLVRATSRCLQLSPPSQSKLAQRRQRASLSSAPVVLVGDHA

[12] = biological target: Serine/threonine-protein kinase PAK 2 (Homo sapiens) (UniProt Q13177); test: Enzymatic radiometric [Km ATP] KinaseProfiler LeadHunter assay, kinase: PAK2, catalogue number: 14-481KP The assay has been performed by Eurofins Discovery.; conditions: ATP concentration 90.0 uM, Test compound concentration 10.0 uM
Chain of Serine/threonine-protein kinase PAK 2 (Homo sapiens) (Q13177 whole entry): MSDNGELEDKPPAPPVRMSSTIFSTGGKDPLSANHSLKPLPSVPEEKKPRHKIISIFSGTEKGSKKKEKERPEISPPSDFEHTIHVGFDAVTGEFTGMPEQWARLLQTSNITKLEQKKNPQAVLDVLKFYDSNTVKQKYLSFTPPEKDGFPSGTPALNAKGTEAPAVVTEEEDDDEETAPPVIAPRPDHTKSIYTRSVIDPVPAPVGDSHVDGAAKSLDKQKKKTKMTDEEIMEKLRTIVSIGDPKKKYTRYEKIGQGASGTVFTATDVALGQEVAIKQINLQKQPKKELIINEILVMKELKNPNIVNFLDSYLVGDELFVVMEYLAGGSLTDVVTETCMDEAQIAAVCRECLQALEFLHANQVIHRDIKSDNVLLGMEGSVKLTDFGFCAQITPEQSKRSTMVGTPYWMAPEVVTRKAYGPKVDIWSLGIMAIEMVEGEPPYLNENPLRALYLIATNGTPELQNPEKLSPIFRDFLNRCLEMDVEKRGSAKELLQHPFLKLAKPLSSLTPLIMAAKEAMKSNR

[13] = biological target: Serine/threonine-protein kinase pim-1 (Homo sapiens) (UniProt P11309); test: Enzymatic radiometric [Km ATP] KinaseProfiler LeadHunter assay, kinase: Pim-1, catalogue number: 14-573KP The assay has been performed by Eurofins Discovery.; conditions: ATP concentration 90.0 uM, Test compound concentration 10.0 uM
Chain of Serine/threonine-protein kinase pim-1 (Homo sapiens) (P11309 whole entry, looked up): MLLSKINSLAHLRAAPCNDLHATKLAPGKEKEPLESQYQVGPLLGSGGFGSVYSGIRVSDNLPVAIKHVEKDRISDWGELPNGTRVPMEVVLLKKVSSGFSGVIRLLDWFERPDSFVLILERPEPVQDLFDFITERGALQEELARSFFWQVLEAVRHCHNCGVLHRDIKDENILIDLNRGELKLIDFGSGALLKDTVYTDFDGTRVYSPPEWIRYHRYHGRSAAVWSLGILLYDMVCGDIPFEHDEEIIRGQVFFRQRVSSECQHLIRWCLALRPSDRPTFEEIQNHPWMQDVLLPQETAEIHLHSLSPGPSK

[14] = biological target: Protein kinase C theta type (Homo sapiens) (UniProt Q04759); test: Enzymatic radiometric [Km ATP] KinaseProfiler LeadHunter assay, kinase: PKC-theta, catalogue number: 14-444KP The assay has been performed by Eurofins Discovery.; conditions: ATP concentration 15.0 uM, Test compound concentration 10.0 uM
[15] = biological target: SRSF protein kinase 1 (Homo sapiens) (UniProt Q96SB4); test: Enzymatic radiometric [Km ATP] KinaseProfiler LeadHunter assay, kinase: SRPK1, catalogue number: 14-564KP The assay has been performed by Eurofins Discovery.; conditions: ATP concentration 10.0 uM, Test compound concentration 10.0 uM
Chain of SRSF protein kinase 1 (Homo sapiens) (Q96SB4 whole entry): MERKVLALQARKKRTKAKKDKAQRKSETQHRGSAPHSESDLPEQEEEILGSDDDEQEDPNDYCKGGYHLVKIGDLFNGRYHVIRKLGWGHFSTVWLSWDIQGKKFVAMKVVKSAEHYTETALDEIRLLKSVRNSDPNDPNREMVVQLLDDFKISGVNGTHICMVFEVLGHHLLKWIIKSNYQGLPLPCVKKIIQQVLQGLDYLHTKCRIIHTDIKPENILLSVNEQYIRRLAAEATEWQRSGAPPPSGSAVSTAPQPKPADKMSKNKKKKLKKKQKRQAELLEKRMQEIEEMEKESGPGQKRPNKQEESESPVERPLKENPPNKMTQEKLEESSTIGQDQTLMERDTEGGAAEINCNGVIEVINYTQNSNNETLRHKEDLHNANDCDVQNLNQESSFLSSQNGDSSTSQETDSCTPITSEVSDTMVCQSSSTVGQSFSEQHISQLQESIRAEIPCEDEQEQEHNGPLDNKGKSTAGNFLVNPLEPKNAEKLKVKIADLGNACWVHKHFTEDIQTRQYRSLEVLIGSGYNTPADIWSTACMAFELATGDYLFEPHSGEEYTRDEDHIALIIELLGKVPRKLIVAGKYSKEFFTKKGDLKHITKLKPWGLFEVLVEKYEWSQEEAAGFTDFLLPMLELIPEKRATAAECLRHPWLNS

[16] = biological target: PI3K p110 beta/p85 alpha (Homo sapiens) (UniProt P27986+P42338); test: Enzymatic radiometric [Km ATP] KinaseProfiler LeadHunter assay, kinase: PI3 Kinase (p110-beta/p85-alpha), catalogue number: 14-603KP The assay has been performed by Eurofins Discovery.; type: protein-complex assay; conditions: ATP concentration 200.0 uM, Test compound concentration 10.0 uM

| Activity [1] | Activity [2] | Activity [3] | Activity [4] | Activity [5] | Activity [6] | Activity [7] | Activity [8] | Activity [9] | Activity [10] | Activity [11] | Activity [12] | Activity [13] | Activity [14] | Activity [15] | Activity [16] | Compound |
| --- | --- | --- | --- | --- | --- | --- | --- | --- | --- | --- | --- | --- | --- | --- | --- | --- |
| 94% | 129% | 96% | 92% | 102% | 110% | 88% | 110% | 82% | 105% | 89% | 110% | 80% | 101% | 105% | 101% | CC(C)[C@@H](Nc1ncnc2[nH]ccc12)c1ccc2c(c1)S(=O)(=O)CCC2 |
| 107% | 103% | 117% | 89% | 102% | 100% | 104% | 106% | 96% | 108% | 99% | 99% | 97% | 102% | 108% | 99% | CC(C)[C@@H](Nc1ncnc2[nH]c(C(=O)N[C@@H]3CCN(C)C3)cc12)c1ccc2c(c1)S(=O)(=O)CCC2 |
| 102% | 91% | 107% | 98% | 87% | 74% | 97% | 111% | 88% | 110% | 99% | 100% | 95% | 106% | 104% | 105% | Cc1nn(C)cc1-c1cc2c(N[C@H](c3ccc4c(c3)S(=O)(=O)CCC4)C(C)C)ncnc2[nH]1 |
| 93% | 92% | 102% | 85% | 93% | 99% | 95% | 99% | 77% | 98% | 110% | 95% | 95% | 100% | 97% | 97% | C[C@H](C(=O)O)[C@@H](NC(=O)c1ncnc2[nH]ccc12)c1ccc(Br)cc1 |
| 104% | 93% | 102% | 93% | 95% | 102% | 100% | 99% | 86% | 106% | 98% | 102% | 91% | 88% | 100% | 100% | CC(C)[C@H](Nc1ncnc2[nH]ccc12)c1ccc2c(c1)S(=O)(=O)CCC2 |
| 101% | 108% | 97% | 96% | 96% | 106% | 106% | 102% | 79% | 92% | 84% | 102% | 91% | 90% | 102% | 102% | COc1ccc([C@@H](Cc2nnn[nH]2)NC(=O)c2ncnc3[nH]ccc23)cc1 |
| 104% | 88% | 95% | 94% | 98% | 80% | 105% | 94% | 91% | 111% | 94% | 103% | 97% | 91% | 94% | 100% | CNC(=O)Cn1cc(-c2cc3c(N[C@@H](c4ccc5c(c4)S(=O)(=O)CCC5)C(C)C)ncnc3[nH]2)cn1 |
| 116% and 99% | 95% and 88% | 95% and 104% | 111% and 106% | 81% and 77% | 91% and 90% | 108% and 94% | 101% and 123% | 80% and 86% | 98% and 114% | 77% and 83% | 95% and 99% | 79% and 99% | 93% and 111% | 92% and 104% | 92% and 84% | CC(C)[C@@H](Nc1ncnc2[nH]c(-c3cnn(C)c3C#N)cc12)c1ccc2c(n1)OCCO2 |
| 109% | 97% | 114% | 124% | 99% | 102% | 77% | 140% | 83% | 110% | 100% | 111% | 107% | 96% | 117% | 91% | Cn1ncc(-c2cc3c(N[C@@H](c4ccc5c(n4)OCCO5)C(C)(C)C)ncnc3[nH]2)c1C#N |
| 86% | 97% | 98% | 82% | 97% | 78% | 99% | 114% | 88% | 106% | 94% | 94% | 93% | 106% | 101% | 92% | CNCc1cc(-c2cc3c(N[C@@H](c4ccc5c(c4)S(=O)(=O)CCC5)C(C)C)ncnc3[nH]2)co1 |
| 111% | 89% | 104% | 108% | 90% | 102% | 85% | 115% | 76% | 115% | 95% | 99% | 98% | 96% | 111% | 86% | CC(C)[C@H](Nc1ncnc2[nH]c(-c3cnn(C)c3C#N)cc12)c1ccc2c(n1)OCCO2 |
| 97% | 98% | 113% | 96% | 97% | 102% | 103% | 116% | 97% | 102% | 115% | 107% | 99% | 91% | 103% | 97% | COc1ccc([C@H](Cc2nnn[nH]2)NC(=O)c2ncnc3[nH]ccc23)cc1 |
